Data taken from article PMC6934184, “Selective DNA-PKcs inhibition extends the therapeutic index of localized radiotherapy and chemotherapy” (The Journal of Clinical Investigation, 2019).

Target: T1, RPS6KA6 (RSK4) (Homo sapiens, UniProt Q9UK32)
T1 construct: purchased Thermo Fisher Scientific (Life Technologies) SelectScreen
Assay: SelectScreen Z'LYTE
Format: biochemical
Method in brief: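 NU5455 was profiled across the SelectScreen Broad panel of kinase activity and binding assays. Z'LYTE reactions such as CSF1R ran at apparent Km ATP, while the Adapta CAMK1 assay used ATP listed as 10. Values are given as percent.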

T1 sequence (Q9UK32 whole entry): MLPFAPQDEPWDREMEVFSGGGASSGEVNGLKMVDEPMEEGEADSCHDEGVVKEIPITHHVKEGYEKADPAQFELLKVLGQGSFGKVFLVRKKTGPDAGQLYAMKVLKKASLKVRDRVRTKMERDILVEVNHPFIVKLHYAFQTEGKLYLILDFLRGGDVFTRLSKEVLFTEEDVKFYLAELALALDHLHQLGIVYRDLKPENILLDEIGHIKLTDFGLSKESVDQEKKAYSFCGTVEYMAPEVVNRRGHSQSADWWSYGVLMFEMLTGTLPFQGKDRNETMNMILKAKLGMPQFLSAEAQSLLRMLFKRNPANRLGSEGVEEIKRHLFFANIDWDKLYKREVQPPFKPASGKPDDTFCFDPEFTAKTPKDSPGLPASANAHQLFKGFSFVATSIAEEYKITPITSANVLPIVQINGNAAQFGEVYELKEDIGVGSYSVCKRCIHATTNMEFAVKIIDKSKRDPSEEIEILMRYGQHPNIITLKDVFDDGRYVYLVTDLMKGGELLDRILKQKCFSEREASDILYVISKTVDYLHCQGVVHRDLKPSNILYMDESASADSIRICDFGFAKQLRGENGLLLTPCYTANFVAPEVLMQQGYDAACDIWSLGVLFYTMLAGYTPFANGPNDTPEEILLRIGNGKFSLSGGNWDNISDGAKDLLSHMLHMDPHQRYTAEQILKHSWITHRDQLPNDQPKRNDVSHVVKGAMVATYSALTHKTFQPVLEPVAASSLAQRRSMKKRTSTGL

## CN(C(=O)CN1CCOCC1)c1ccc2sc3c(-c4cccc5c(=O)cc(N6CC7CCC(C6)O7)oc45)cccc3c2c1 [NU5455]
  inhibition at 1 µM: 3.8%
